This is an account of results in patent US11833162B2, “Macrocyclic derivatives, process for preparing same and pharmaceutical compositions containing same” (LES LABORATOIRES SERVIER, priority 2017, dated 2023).

One assay deals with Bcl-2 protein (histag-Bcl-2, UniProtKB P10415) (Homo sapiens, UniProt P10415). The experiment in a line: Inhibition of Bcl-2 by the fluorescence polarisation technique. Format: binding. Particulars: for IC50: fluorescence polarisation, 2 hours incubation, read-out: IC50 (μM) Bcl-2 FP. How it is done: The fluorescence polarisation tests were carried out on microplates (384 wells). The Bcl-2 protein, labelled (histag-Bcl-2 such that Bcl-2 corresponds to the UniProtKB® primary accession number: P10415), at a final concentration of 5×10^−9M, is mixed with a fluorescent peptide (Fluorescein-REIGAQLRRMADDLNAQY), at a final concentration of 1.00×10^−9M in a buffer solution (Hepes 10 mM, NaCl 150 mM, Tween20 0.05%, pH 7.4), in the presence or absence of increasing concentrations of test compounds. After incubation for 2 hours, the fluorescence polarisation is measured.
In general terms: Fluorescence polarisation rises when a labelled molecule tumbles more slowly, as on binding a larger partner.

The subject of assay [1] is RS4; 11 leukaemia tumour line. Kind of assay: In vitro cytotoxicity, Microculture Tetrazolium Assay (MTT). It counts as cell-based. Particulars: 11 cells, 48 hours exposure. How it is done:
The cytotoxicity studies were carried out on the RS4; 11 leukaemia tumour line.
The cells are distributed onto microplates and exposed to the test compounds for 48 hours.
The cell viability is then quantified by a colorimetric assay, the Microculture Tetrazolium Assay (Cancer Res., 1987, 47, 939-942).

Bcl-2 protein, sequence (P10415 whole entry): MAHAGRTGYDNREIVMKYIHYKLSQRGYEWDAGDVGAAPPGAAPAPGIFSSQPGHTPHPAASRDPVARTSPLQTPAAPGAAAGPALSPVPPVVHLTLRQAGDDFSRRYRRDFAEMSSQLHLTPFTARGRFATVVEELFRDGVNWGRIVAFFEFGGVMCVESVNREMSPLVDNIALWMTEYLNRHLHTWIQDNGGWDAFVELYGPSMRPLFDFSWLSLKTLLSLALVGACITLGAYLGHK

The IC50 is the concentration needed to halve the response being measured. `Cc1c2cc(n1C)-c1cc(Cl)ccc1C(=O)N1Cc3cccc(c3CC1C)OCCCc1c(cc(C#N)n1C)N(c1ccc(O)cc1)C2=O` (single isomer, unassigned) [Example 25, (16R or S)-11-Chloro-4-(4-hydroxyphenyl)-1,7,8,16-tetramethyl-5,14-dioxo-4,5,8,16,17,23,24,25-octahydro-1H,14H-15,18-methano-6,9-(metheno)dibenzo[b,h]-pyrrolo[3,2-p][1,6,11,15]oxatriazacycloicosine-2-carbonitrile]: the IC50 at Bcl-2 protein stood at 0.268 µM; in assay [1], 809 nM.

As to `Cc1c2cc(n1C)-c1cc(Cl)ccc1C(=O)N1CCc3c(cccc3OCCOCCOc3ncc(cn3)N(c3ccc(O)cc3)C2=O)C1` [Example 38, 10-Chloro-2-(4-hydroxyphenyl)-5,6-dimethyl-24,27,30-trioxa-2,6,15,32,35-pentaazahexacyclo[29.2.2.1˜4,7˜.1˜15,19˜.0˜8,13˜.0˜18,23˜]heptatriaconta-1(33),4,7(37), 8,10,12,18,20,22,31,34-undecuene-3,14-dione], the IC50 on Bcl-2 protein was 0.00385 µM; in assay [1] (Homo sapiens, RS4-11, 48 h), 23.1 nM.

`Cc1c2cc(n1C)-c1cc(F)ccc1C(=O)N1CCc3c(cccc3OCCc3c(cnn3C)N(c3ccc(O)cc3)C2=O)C1` [Example 20, 11-Fluoro-4-(4-hydroxyphenyl)-1,8-trimethyl-1,4,16,17,23,24-hexahydro-14H-15,18-methano-6,9-(metheno)dibenzo[l,r]pyrazolo[3,4-d][1,6,10,15]oxatriazacyclo-nonadecine-5,14(8H)-dione]: the IC50 was determined as 0.0123 µM at Bcl-2 protein and 81.2 nM in assay [1] (Homo sapiens, RS4-11, 48 h).

Consider `Cc1c2cc(n1C)-c1cc(Cl)ccc1C(=O)N1Cc3cccc(c3CC1C)OCCCc1c(cc(C#N)n1C)N(c1ccc(O)cc1)C2=O` (single isomer, unassigned) [Example 26, (16S or R)-11-Chloro-4-(4-hydroxyphenyl)-1,7,8,16-tetramethyl-5,14-dioxo-4,5,8,16,17,23,24,25-octahydro-1H,14H-15,18-methano-6,9-(metheno)-dibenzo[b,h]pyrrolo[3,2-p][1,6,11,15]oxatriazacycloicosine-2-carbonitrile], for which the IC50 on Bcl-2 protein stood at 0.0041 µM; in assay [1] it was 1.66 nM.

On to `Cc1c2cc(n1C)-c1cc(Cl)ccc1C(=O)N1CCc3c(cccc3OCCCCOc3ncc(cn3)N(c3ccc(O)cc3)C2=O)C1` [Example 41, 10-Chloro-2-(4-hydroxyphenyl)-5,6-dimethyl-24,29-dioxa-2,6,15,31,34-pentaazahexacyclo[28.2.2.1˜4,7˜.1˜15,19˜.0˜8,13˜.0˜18,23˜]hexatriaconta-1(32),4,7(36),8,10,12,18,20,22,30,33-undecaene-3,14-dione], for which the IC50 turned out to be 0.0467 µM on Bcl-2 protein and 197 nM in assay [1] (Homo sapiens, RS4-11, 48 h).

On to `Cc1c2cc(n1C)-c1cc(Cl)ccc1CN1CCc3c(cccc3OCCCc3c(cnn3C)N(c3ccc(O)cc3)C2=O)C1` [Example 11, 11-Chloro-4-(4-hydroxyphenyl)-1,7,8-trimethyl-4,16,17,23,24,25-hexahydro-1H,14H-15,18-methano-6,9-(metheno)dibenzo[b,h]pyrazolo[4,3-p]-[1,6,11,15]oxatriazacycloicosin-5(8H)-one], for which the half-inhibitory concentration (IC50) came out at 0.157 µM on Bcl-2 protein and 448 nM in assay [1] (Homo sapiens, RS4-11, 48 h).

With `Cc1c2cc(n1C)-c1cc(Cl)ccc1C(=O)N1CCc3c(cccc3OCCCCn3cc(cn3)N(c3ccc(O)cc3)C2=O)C1` [Example 15, Chloro-14-(4-hydroxyphenyl)-10,11-dim ethyl-23-oxa-1,10,14,17,18-pentaazahexacyclo[26.3.1.1˜9,12˜.1˜15,18˜.0˜3,8˜.0˜24,29˜]tetratriaconta-3,5,7, 9(34),11,15(33),16,24,26,28-deca ene-2,13-dione], the 50% inhibitory concentration (IC50) worked out at 0.0037 µM at Bcl-2 protein and 11.6 nM in assay [1] (Homo sapiens, RS4-11, 48 h).

As for `Cc1c2cc(n1C)-c1cc(Cl)ccc1C(=O)N1CCc3c(cccc3OCCOc3cccc(c3)N(c3ccc(O)cc3)C2=O)C1` [Example 1, 6-Chloro-14-(4-hydroxyphenyl)-10,11-dimethyl-20,23-dioxa-1,10,14-triazahexacyclo[26.3.1.1˜9,12˜.1˜15,19−.0˜3,8˜.0˜24.29˜]tetratriaconta-3,5,7,9(34),11,15(3.3),16,18,24,26,28-undecaene-2,13-dione], the IC50 on Bcl-2 protein was determined as 0.0067 µM; in assay [1] (Homo sapiens, RS4-11, 48 h) it was 107 nM.

For `Cc1c2cc(n1C)-c1cc(Cl)ccc1C(=O)N1CCc3c(cccc3OCCc3c(cc(C#N)n3C)N(c3ccc(O)cc3)C2=O)C1` [Example 19, 11-Chloro-4-(4-hydroxyphenyl)-1,7,8-trimethyl-5,14-dioxo-1,4,5,8,16,17,23,24-octahydro-14H-15,18-methano-6,9-(metheno)dibenzo[l,r]pyrrolo-[2,3-d][1,6,10,15]oxatriazacyclononadecine-2-carbonitrile], the IC50 at Bcl-2 protein turned out to be 0.0055 µM; in assay [1] (Homo sapiens, RS4-11, 48 h), 10.3 nM.

`Cc1c2cc(n1C)-c1cc(Cl)ccc1C(=O)N1Cc3ccccc3C(COc3ccc(C#N)cc3N(c3ccc(O)cc3)C2=O)C1` (stereo not shown) [Example 13, 12-Chloro-5-(4-hydroxyphenyl)-8,9-dimethyl-6,15-dioxo-6,9,22,23-tetrahydro-5H,15H,17H-16,22-methano-7,10-(metheno)tribenzo[b,j,o][1,4,8,13]oxa-triazacyclooctadecine-3-carbonitrile]: the IC50 on Bcl-2 protein is 0.0332 µM; in assay [1] (Homo sapiens, RS4-11, 48 h), 239 nM.

`Cc1c2cc(n1C)-c1cc(Cl)ccc1C(=O)N1CCc3c(cccc3OCCCCCCOc3ncc(cn3)N(c3ccc(O)cc3)C2=O)C1` [Example 39, 10-Chloro-2-(4-hydroxyphenyl)-5,6-dimethyl-24,31-dioxa-2,6,15,33,36-pentaazahexacyclo[30.2.2.1˜4,7˜.1˜15,19˜.0˜8,13˜.0˜18,23˜]octatriaconta-1(34),4,7(38),8,10,12,18,20,22,32,35-undecuene-3,14-dione]: the IC50 on Bcl-2 protein was determined as 0.0768 µM; in assay [1] (Homo sapiens, RS4-11, 48 h), 149 nM.

Consider `Cc1c2cc(n1C)-c1cc(Cl)ccc1C(=O)N1Cc3cccc(c3C1)OCCc1c(cnn1C)N(c1ccc(O)cc1)C2=O` [Example 24, 11-Chloro-4-(4-hydroxyphenyl)-1,7,8-trimethyl-1,4,22,23-tetrahydro-14H,16H-15,17-methano-6,9-(metheno)dibenzo[b,g]pyrazolo[4,3-o][1,5,10,14]oxatriaza-cyclooctadecine-5,14(8H)-dione], for which the IC50 on Bcl-2 protein was found to be 0.0149 µM; in assay [1] (Homo sapiens, RS4-11, 48 h), 106 nM.

For the compound `Cc1c2cc(n1C)-c1cc(Cl)ccc1C(=O)N1CCc3c(cccc3OCCn3c(C)ncc(c3=O)N(c3ccc(O)cc3)C2=O)C1` [Example 31, 6-Chloro-14-(4-hydroxyphenyl)-10,11,18-trimethyl-22-oxa-1,10,14,17,19-pentaazahexacyclo[25.3.1.1˜9,12˜.1˜15,19˜.0˜3,8˜.0˜23,28˜]tritriaconta-3,5,7,9(33),11,15,17,23,25,27-decaene-2,13,32-trione], the “Bcl-2 FP, % at given concentration” value on Bcl-2 protein (@1.1 μM) was 74.55% @1.1 μM. For the same compound, in assay [1] (Homo sapiens, RS4-11, 48 h), the IC50 was 1330 nM.

As to `Cc1c2cc(n1C)-c1cc(Cl)ccc1C(=O)N1CCc3c(cccc3OCCOCCN(c3ccc(O)cc3)C2=O)C1` [Example 34, 18-chloro-11-(4-hydroxyphenyl)-14,15-dimethyl-6,7,10,11,23,24-hexahydro-9H,21H-1,22-methano-13,16-(metheno)dibenzo[m,s][1,4,7,11,16]dioxatriaza-cycloicosine-12,21(15H)-dione], the IC50 on Bcl-2 protein came out at 0.0693 µM; in assay [1] (Homo sapiens, RS4-11, 48 h) it was 1240 nM.
